Results on 18 compounds are retold here after patent US20200399243A1, “NOVEL COMPOUNDS” (Inflazome Limited, priority 2018, published 2020).

The term pIC50 denotes the negative decadic logarithm of the IC50, by convention in mol/L. High values mean a low IC50, low ones a high IC50.

pIC50: −log10 of the molar value. Structures can show the parent of a compound that is named as a salt.

T1 sequence (Q96P20 whole entry): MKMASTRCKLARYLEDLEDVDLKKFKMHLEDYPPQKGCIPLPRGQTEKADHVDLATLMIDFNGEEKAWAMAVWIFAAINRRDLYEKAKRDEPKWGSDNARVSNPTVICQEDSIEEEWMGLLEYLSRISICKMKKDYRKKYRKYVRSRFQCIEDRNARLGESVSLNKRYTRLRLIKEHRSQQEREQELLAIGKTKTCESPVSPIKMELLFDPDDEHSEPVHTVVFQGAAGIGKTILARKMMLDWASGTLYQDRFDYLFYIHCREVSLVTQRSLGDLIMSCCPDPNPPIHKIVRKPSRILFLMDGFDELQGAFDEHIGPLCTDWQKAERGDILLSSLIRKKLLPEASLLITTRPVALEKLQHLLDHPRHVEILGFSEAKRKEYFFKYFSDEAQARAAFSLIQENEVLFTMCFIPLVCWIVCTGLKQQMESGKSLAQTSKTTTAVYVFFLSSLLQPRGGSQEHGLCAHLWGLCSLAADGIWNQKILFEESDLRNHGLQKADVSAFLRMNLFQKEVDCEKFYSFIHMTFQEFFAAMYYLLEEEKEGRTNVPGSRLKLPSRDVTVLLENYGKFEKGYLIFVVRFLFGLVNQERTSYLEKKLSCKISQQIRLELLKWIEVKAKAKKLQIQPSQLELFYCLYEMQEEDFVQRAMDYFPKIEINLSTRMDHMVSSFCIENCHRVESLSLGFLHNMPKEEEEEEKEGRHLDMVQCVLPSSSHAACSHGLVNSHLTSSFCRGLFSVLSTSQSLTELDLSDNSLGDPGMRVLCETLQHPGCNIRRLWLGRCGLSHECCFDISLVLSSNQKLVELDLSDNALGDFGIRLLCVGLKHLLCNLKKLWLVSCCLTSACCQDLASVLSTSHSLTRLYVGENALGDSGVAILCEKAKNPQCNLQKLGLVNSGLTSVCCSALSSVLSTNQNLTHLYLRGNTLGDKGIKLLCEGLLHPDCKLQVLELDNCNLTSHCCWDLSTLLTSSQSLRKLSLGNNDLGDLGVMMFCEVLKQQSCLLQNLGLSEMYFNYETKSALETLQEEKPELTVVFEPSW

The assay has as its target T1, NLRP3 (Homo sapiens, UniProt Q96P20).
T1 construct: Seed THP-1 cells (25,000 cells/well) containing 1.0 μg/ml LPS in 40 μl of RPMI medium; host or cells: THP-1 cells
Nature of the assay: THP-1 cells pyroptosis assay. The settings on record: 1.0 μg/ml LPS, compound 3 hrs, nigericin 5 μM 1 hr, resazurin readout. It is filed as cell-based. How it is done:
THP-1 cells (ATCC # TIB-202) were grown in RPMI containing L-glutamine (Gibco #11835) supplemented with 1 mM sodium pyruvate (Sigma # S8636) and penicillin (100 units/ml)/streptomycin (0.1 mg/ml) (Sigma # P4333) in 10% Fetal Bovine Serum (FBS) (Sigma # F0804). The cells were routinely passaged and grown to confluency (˜10^6 cells/ml). On the day of the experiment, THP-1 cells were harvested and resuspended into RPMI medium (without FBS). The cells were then counted and viability (>90%) checked by Trypan blue (Sigma # T8154). Appropriate dilutions were made to give a concentration of 625,000 cells/ml. To this diluted cell solution was added LPS (Sigma # L4524) to give a 1 μg/ml Final Assay Concentration (FAC). 40 μl of the final preparation was aliquoted into each well of a 96-well plate. The plate thus prepared was used for compound screening. The following method step-by-step assay was followed for compound screening. • 1. Seed THP-1 cells (25,000 cells/well) containing 1.0 μg/ml LPS in 40 μl of RPMI medium (without FBS) in 96-well, black walled, clear bottom cell culture plates coated with poly-D-lysine (VWR #734-0317) • 2. Add 5 μl compound (8 points half-log dilution, with 10 μM top dose) or vehicle (DMSO 0.1% FAC) to the appropriate wells • 3. Incubate for 3 hrs at 37° C., 5% CO2 • 4. Add 5 μl nigericin (Sigma # N7143) (FAC 5 μM) to all wells • 5. Incubate for 1 hr at 37° C., 5% CO2 • 6. At the end of the incubation period, spin plates at 300×g for 3 mins and remove supernatant 7. Then add 50 μl of resazurin (Sigma # R7017) (FAC 100 μM resazurin in RPMI medium without FBS) and incubate plates for a further 1-2 hrs at 37° C. and 5% CO2 • 8. Plates were read in an Envision reader at Ex 560 nm and Em 590 nm • 9. IC50 data is fitted to a non-linear regression equation (log inhibitor vs response-variable slope 4-parameters) The results of the pyroptosis assay are summarised in Table 2 below as THP IC50.
(In general: Alamar Blue is a resazurin reagent that responds to reducing activity.)
In turn, `CC(C)n1nc(S(=O)(=O)NC(=O)Cc2c3c(cc4c2CCC4)CCC3)cc1CN(C)C` [Example 1, N-((5-((Dimethylamino)methyl)-1-isopropyl-1H-pyrazol-3-yl)sulfonyl)-2-(1,2,3,5,6,7-hexahydro-s-indacen-4-yl)acetamide] showed a pIC50 of 5.30 to 6.00.

The compound `CC(C)c1cc(F)cc(-c2ccncc2)c1CC(=O)NS(=O)(=O)c1ccn(C(C)(C)CN(C)C)n1` [Example 7, N-((1-(1-(Dimethylamino)-2-methylpropan-2-yl)-1H-pyrazol-3-yl)sulfonyl)-2-(4-fluoro-2-isopropyl-6-(pyridin-4-yl)phenyl)acetamide, potassium salt] gave a pIC50 of 5.30 to 6.00.

Turning to `CC(C)c1cc(F)cc(C(C)C)c1CC(=O)NS(=O)(=O)c1ccn(CCN(C)C)n1` [Example 16, N-((1-(2-(Dimethylamino)ethyl)-1H-pyrazol-3-yl)sulfonyl)-2-(4-fluoro-2,6-diisopropylphenyl)acetamide], the negative-log IC50 (pIC50) is 5.00 to 5.30.

For the compound `COc1cc(-c2cc(F)cc(C(C)C)c2CC(=O)NS(=O)(=O)c2cc(CN(C)C)n(C)n2)ccn1` [Example 8, N-((5-((Dimethylamino)methyl)-1-methyl-1H-pyrazol-3-yl)sulfonyl)-2-(4-fluoro-2-isopropyl-6-(2-methoxypyridin-4-yl)phenyl) acetamide, potassium salt], the pIC50 is 5.30 to 6.00.

`CC(C)c1cc(F)cc(C(C)C)c1CC(=O)NS(=O)(=O)c1cc(C(=O)N(C)C)n(C)n1` [Example 2, 3-(N-(2-(4-Fluoro-2,6-diisopropylphenyl)acetyl)sulfamoyl)-N,N,1-trimethyl-1H-pyrazole-5-carboxamide] gave a negative logarithm of the IC50 (pIC50) of 5.30 to 6.00.

Consider `CC(c1cc(S(=O)(=O)NC(=O)Cc2c3c(cc4c2CCC4)CCC3)nn1C(C)C)N(C)C` (stereo not drawn) [Example 3, N-((5-(1-(Dimethylamino)ethyl)-1-isopropyl-1H-pyrazol-3-yl)sulfonyl)-2-(1,2,3,5,6,7-hexahydro-s-indacen-4-yl)acetamide], for which the negative logarithm of the IC50 (pIC50) was 5.30 to 6.00.

For `COc1cc(-c2ccc3c(c2CC(=O)NS(=O)(=O)c2cc(C(=O)N(C)C)n(C)n2)CCC3)ccn1` [Example 14, 3-(N-(2-(5-(2-Methoxypyridin-4-yl)-2,3-dihydro-1H-inden-4-yl)acetyl)sulfamoyl)-N,N,1-trimethyl-1H-pyrazole-5-carboxamide], the pIC50 was 5.00 to 5.30.

In turn, `CC(C)c1cc(F)cc(-c2cccnc2)c1CC(=O)NS(=O)(=O)c1cc(C(=O)N(C)C)n(C)n1` [Example 5, 3-(N-(2-(4-Fluoro-2-isopropyl-6-(pyridin-3-yl)phenyl)acetyl)sulfamoyl)-N,N,1-trimethyl-1H-pyrazole-5-carboxamide] had a pIC50 of 5.30 to 6.00.

`CN(C)CC(C)(C)n1ccc(S(=O)(=O)NC(=O)Cc2c3c(cc4c2CCC4)CCC3)n1` [Example 13, N-((1-(1-(Dimethylamino)-2-methylpropan-2-yl)-1H-pyrazol-3-yl)sulfonyl)-2-(1,2,3,5,6,7-hexahydro-s-indacen-4-yl)acetamide] showed a pIC50 of 5.00 to 5.30.

`CC(c1cc(S(=O)(=O)NC(=O)Cc2c3c(cc4c2CCC4)CCC3)nn1C)N(C)C` (stereo not drawn) [Example 11, N-((5-(1-(Dimethylamino)ethyl)-1-methyl-1H-pyrazol-3-yl)sulfonyl)-2-(1,2,3,5,6,7-hexahydro-s-indacen-4-yl)acetamide] showed a pIC50 of 5.30 to 6.00.

`CC(C)c1cc(F)cc(-c2ccncc2)c1CC(=O)NS(=O)(=O)c1cc(CN(C)C)n(C)n1` [Example 17, N-((5-((Dimethylamino)methyl)-1-methyl-1H-pyrazol-3-yl)sulfonyl)-2-(4-fluoro-2-isopropyl-6-(pyridin-4-yl)phenyl)acetamide] gave a negative-log IC50 (pIC50) of 5.30 to 6.00.

In turn, `COc1cc(-c2cc(F)cc(C(C)C)c2CC(=O)NS(=O)(=O)c2ccn(C(C)(C)CN(C)C)n2)ccn1` [Example 18] gave a pIC50 of 5.30 to 6.00.

For the compound `CC(C)c1cc(F)cc(-c2ccncc2)c1CC(=O)NS(=O)(=O)c1cc(C(=O)N(C)C)n(C)n1` [Example 6, 3-(N-(2-(4-Fluoro-2-isopropyl-6-(pyridin-4-yl)phenyl)acetyl)sulfamoyl)-N,N,1-trimethyl-1H-pyrazole-5-carboxamide, potassium salt], the pIC50 was 5.30 to 6.00.

`CC(c1cc(S(=O)(=O)NC(=O)Cc2c3c(cc4c2CCC4)CCC3)nn1C1CC1)N(C)C` (stereo not drawn) [Example 9, N-((1-Cyclopropyl-5-(1-(dimethylamino)ethyl)-1H-pyrazol-3-yl)sulfonyl)-2-(1,2,3,5,6,7-hexahydro-s-indacen-4-yl)acetamide]: the negative-log IC50 (pIC50) is 5.30 to 6.00.

`CN(C)C(=O)c1cc(S(=O)(=O)NC(=O)Cc2c3c(cc4c2CCC4)CCC3)nn1C` [Example 12, 3-(N-(2-(1,2,3,5,6,7-Hexahydro-s-indacen-4-yl)acetyl)sulfamoyl)-N,N,1-trimethyl-1H-pyrazole-5-carboxamide] had a negative logarithm of the IC50 (pIC50) of 5.00 to 5.30.

With `COc1cc(-c2cc(F)cc(C(C)C)c2CC(=O)NS(=O)(=O)c2cc(C(=O)N(C)C)n(C)n2)ccn1` [Example 4, 3-(N-(2-(4-Fluoro-2-isopropyl-6-(2-methoxypyridin-4-yl)phenyl)acetyl)sulfamoyl)-N,N,1-trimethyl-1H-pyrazole-5-carboxamide, potassium salt], the negative logarithm of the IC50 (pIC50) was at least 6.00.

As to `CC(C)c1cc(F)cc(C(C)C)c1CC(=O)NS(=O)(=O)c1cc(CN(C)C)n(C2CC2)n1` [Example 10, N-((1-Cyclopropyl-5-((dimethylamino)methyl)-1H-pyrazol-3-yl)sulfonyl)-2-(4-fluoro-2,6-diisopropylphenyl)acetamide], the negative logarithm of the IC50 (pIC50) was 5.30 to 6.00.

The compound `CN(C)C(=O)c1cc(S(=O)(=O)NC(=O)Cc2c(-c3ccnc(C#N)c3)ccc3c2CCC3)nn1C` [Example 15, 3-(N-(2-(5-(2-Cyanopyridin-4-yl)-2,3-dihydro-1H-inden-4-yl)acetyl)sulfamoyl)-N,N,1-trimethyl-1H-pyrazole-5-carboxamide] gave a negative-log IC50 (pIC50) of 5.30 to 6.00.
